Laboratory results reported in patent US20040086904A1, “Screening assay for cotranslational translocation interfering compounds” (priority 2001, published 2004).

Key:
E-Selectin = target: T1, E-Selectin (Homo sapiens, UniProt P16581); assay: Transient expression of E-Selectin in HEK293 cells, Western blot / immunoblot; format: cell-based; settings: transiently transfected HEK293 cells, 48 hours post-transfection, increasing concentrations
T1 construct: Full length cDNAs of the adhesion molecules VCAM-1, ICAM-1 and E-Selectin are transcribed and translated; host or cells: cell-free: coupled TNT reticulocyte lysate (Promega) with dog pancreatic microsomes
T1 sequence (P16581 22-610): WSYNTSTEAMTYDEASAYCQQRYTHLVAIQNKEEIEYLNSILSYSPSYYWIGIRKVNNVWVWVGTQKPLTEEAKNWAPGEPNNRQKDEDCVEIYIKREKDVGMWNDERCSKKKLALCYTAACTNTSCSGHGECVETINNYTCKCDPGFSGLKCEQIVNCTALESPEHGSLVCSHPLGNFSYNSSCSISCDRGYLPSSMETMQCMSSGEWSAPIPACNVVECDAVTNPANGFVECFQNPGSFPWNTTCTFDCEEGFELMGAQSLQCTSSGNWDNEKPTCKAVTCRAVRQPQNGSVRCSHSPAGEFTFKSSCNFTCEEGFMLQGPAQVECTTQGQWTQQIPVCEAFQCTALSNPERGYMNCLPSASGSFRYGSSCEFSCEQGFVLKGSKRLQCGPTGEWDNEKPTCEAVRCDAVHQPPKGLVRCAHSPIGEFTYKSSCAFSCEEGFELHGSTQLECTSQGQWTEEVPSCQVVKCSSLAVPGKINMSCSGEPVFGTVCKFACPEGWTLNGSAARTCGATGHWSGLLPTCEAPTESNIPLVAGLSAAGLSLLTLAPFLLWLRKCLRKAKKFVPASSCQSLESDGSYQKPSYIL
Experimental: The E-Selectin and ICAM-1 expression vectors pCDM8-E-selectin and pCDM8-ICAM-1 allowing transient expression in mammalian cells and cell-free translation are obtained from R&D Systems. VCAM-1 cDNA is obtained by reverse transcription of total RNA from TNF-α stimulated primary human umbilical vein endothelial cells (HUVEC) as follows. After extraction of total RNA with Trizol (GibcoBRL) according to the suppliers recommendations, reverse transcription (RT) PCR on approximately 3 μg total HUVEC RNA is performed using the Advantage High Fidelity PCR kit (CLONTECH) under standard conditions with N- and C-terminal VCAM-1-specific sense and antisense oligonucleotide primers, respectively. Primers are tailed, introducing a Kpnl restriction site 5′ of the Kozak sequence and a Xhol site 3′ of the stop codon. Placental SEAP is amplified accordingly by PCR using plasmid pBC 12/PLAP489 (Berger et al., 1988) as a template and similar tailed SEAP-specific sense and antisense oligonuclotide primers. The SEAP and VCAM-1 cDNAs are isolated and cloned into the pCR2.1 vector (TA cloning kit, Invitrogen). […] Approximately equal molar quantities of each PCR product A and B are phosphorylated and ligated. […]
Protein expression in cells is analyzed by Western blot and subsequent immunoblot analysis. […]

SEAP = assay: SP-SEAP assay, secretion of SEAP into the medium; format: cell-based, human; settings: transiently transfected cells, increasing concentrations
Experimental: Cell Culture and Transient Transfections HEK293 cells are maintained in Dulbeccos' modified Eagle's medium (DMEM, Gibco-BRL), supplemented with 10% heat-inactivated fetal calf serum (FCS, Bio-Whittaker) and 100 Units/ml each of penicillin (BC) and streptomycin (Gibco-BRL) at 37° in a 5% humidified CO2 incubator. HUVEC cells are cultured in endothelial cell basal medium (EBM, Clonetics Corp.) supplemented with 10% FCS, 5×10^−4 M dibutyryl cAMP (Sigma), 1 μg/ml hydrocortisone (Sigma) and 10 ng/ml human EGF (Boehringer) at 37° in a 5% humidified CO2 incubator. VCAM-1 production is stimulated by incubation with 100U/ml TNF-α for ca. 8 hours. For transient transfection, HEK293 cells are seeded into 6-well or 24-well cell culture dishes at a density of 6×10^5 cells/well or 1.5×10^5 cells/well, respectively, the day prior to transfection and grown to 50-70% confluency. […]
Human placental SEAP levels in cell supernatants are determined using either a fluorescence-based assay or an assay that measures light absorbance at 405 nm accompanying hydrolysis of pNPP according to the method described (Berger et al., 1988). […] 20 μl of 120 mM pNPP in 1x SEAP buffer prewarmed to 37° is added and the change in absorbance at 37° is plotted. […] For determination of SEAP levels by a fluorescence-based assay the Atto Phos AP Fluorescent Substrate Sysem (Promega) is used according to the manufacturer's instructions. […]

For `CCCCC(C)CC1NC(=O)C(Cc2cn(OC)c3ccccc23)N(C)C(=O)C(CC(C)C)NC(=O)C(CC(C)C)N(C)C(=O)C(CC(C)CCCC)NC(=O)C(CCC(=O)OCCC)OC(=O)C(C)N(C)C1=O` (centres unmarked) [CP], the “synthesis of E-Selectin” value (E-Selectin) was “not-affected” and the “sensitivity of SEAP secretion to the compound” value (SEAP) was “compound-insensitive”.
